Values quoted from earlier work as cited in patent publication US20020146463A1, “Health promoting compositions” (priority 2000, published 2002).

What was measured:
[1] = 500 patients with skin conditions, 180-300 mg beta carotene/day for 10 years
[2] = high versus low levels of folic acid in diet
[3] = three recent trials

CC1=C(/C=C/C(C)=C/C=C/C(C)=C/C=C/C=C(C)/C=C/C=C(C)/C=C/C2=C(C)CCCC2(C)C)C(C)(C)CCC1 [beta carotene]
adverse effects [1]: without report of adverse effects

Nc1nc2ncc(CNc3ccc(C(=O)N[C@@H](CCC(=O)O)C(=O)O)cc3)nc2c(=O)[nH]1 [folic acid]
less likely to suffer a fatal heart attack [2]: 69%

vitamin E
reduction of the risk of heart attacks [3]: more than half
